Data on one compound can be found in patent publication US20220096376A1, “DRUG DELIVERY PLATFORM USING W/O/W-TYPE TRIOLEIN EMULSION PROMOTIVE OF BLOOD-BRAIN BARRIER OPENING” (PUSAN NATIONAL UNIVERSITY INDUSTRY-UNIVERSITY COOPERATION …, priority 2019, published 2022).

Values joined by “and” are separate entries in the source; they are usually repeats but may differ in a detail not shown here. Equal entries are not always repeated.

This data set is described as follows: Confirmation of drug delivery activity to brain (doxorubicin concentration by fluorometer). The data set is classed as in vivo. The conditions noted are these: rabbit. The method, then:
A triolein emulsion having a W/O/W double structure and an average particle diameter of 7 μm was prepared in the same manner as described above. After diluting by mixing 0.2 ml (2%) of the emulsion in 10 ml of physiological saline, 7 ml of the emulsion diluted in the same procedure as in the experiment in which the trypan blue was added to 1.7 kg male rabbits distributed from Semtako and doxorubicin, a water-soluble drug, were injected, and 2 hours later, the brain of the rabbit was excised and the concentration of doxorubicin was measured using a fluorometer. At this time, three brain tissues were taken off and measured three times.

Setting [1] is: 7 ml diluted W/O/W triolein emulsion and doxorubicin injected, 2 hours later, single measurements.
The mark [2] stands for this setting: with W/O/W triolein emulsion, 2 hours, Average.

With `COc1cccc2c1C(=O)c1c(O)c3c(c(O)c1C2=O)C[C@@](O)(C(=O)CO)C[C@@H]3O[C@H]1C[C@H](N)[C@H](O)[C@H](C)O1` [Doxorubicin, doxorubicin], under setting [1], the “Doxorubicin concentration in the left brain (RFU)” value is 64 RFU and 77 RFU and 89 RFU and 78 RFU and 65 RFU and 70 RFU and 53 RFU and 88 RFU; the “Doxorubicin concentration in the right brain (RFU)” value is 420 RFU and 445 RFU and 431 RFU and 444 RFU and 455 RFU and 464 RFU and 437 RFU and 428 RFU. Further, under setting [2], the “Doxorubicin concentration in the left brain (RFU)” value worked out at 73.56 RFU, the “Doxorubicin concentration in the right brain (RFU)” value is given as 439.11 RFU and the “Right brain doxorubicin/left brain doxorubicin ratio” value is recorded as 6.12.
